PubChem BioAssay (NCI)
“And” between values parts separate entries of the source, which are not always exact repeats. Equal entries are not always repeated.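 Growth conditions: 96-well plates. Treatment: test compound, 48 hours, 5 concentrations. Analysis: linear interpolation between bracketing concentrations; unreached endpoints set to highest concentration. At the GI50, growth is halved. TGI marks complete inhibition of growth.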

Legend:
Assay in all cases: NCI-60 cell line screen, 48 h
NCI-H23 lung = test system: NCI-H23 lung
IGROV1 ovarian = test system: IGROV1 ovarian
A549 NSCLC = test system: A549 NSCLC
SW-620 colon = test system: SW-620 colon
HCT-15 colon = test system: HCT-15 colon
SF-268 CNS = test system: SF-268 CNS
HL-60(TB) leukemia = test system: HL-60(TB) leukemia
RPMI-8226 leukemia = test system: RPMI-8226 leukemia
HOP-92 NSCLC = test system: HOP-92 NSCLC
UO-31 renal = test system: UO-31 renal

| SMILES | TGI (NCI-H23 lung) | TGI (IGROV1 ovarian) | TGI (A549 NSCLC) | TGI (SW-620 colon) | TGI (HCT-15 colon) | TGI (SF-268 CNS) | TGI (HL-60(TB) leukemia) | TGI (RPMI-8226 leukemia) | TGI (HOP-92 NSCLC) | TGI (UO-31 renal) | GI50 (NCI-H23 lung) [µM] | GI50 (IGROV1 ovarian) | GI50 (A549 NSCLC) [µM] | GI50 (SW-620 colon) [µM] | GI50 (HCT-15 colon) [µM] | GI50 (SF-268 CNS) [µM] | GI50 (HL-60(TB) leukemia) [µM] | GI50 (RPMI-8226 leukemia) [µM] | GI50 (HOP-92 NSCLC) [µM] | GI50 (UO-31 renal) [µM] |
| --- | --- | --- | --- | --- | --- | --- | --- | --- | --- | --- | --- | --- | --- | --- | --- | --- | --- | --- | --- | --- |
| CC1(C)Oc2ccccc2[N+]([O-])=C1c1ccccc1 | > 100 µM | > 100 µM | > 100 µM | > 100 µM | > 100 µM | > 100 µM | > 100 µM | > 100 µM | > 100 µM | > 100 µM | – | – | – | – | – | – | – | – | – | – |
| COc1cc(=O)oc(/C=C/C=C/C=C/C(C)=C\C2(C)OC(C)C(C)(O)C2O)c1C (centres undefined) | > 100 µM | > 100 µM | > 100 µM | > 100 µM | > 100 µM | > 100 µM | > 100 µM | > 100 µM | > 100 µM | > 100 µM | – | – | – | – | – | – | – | – | – | – |
| C[C@H](C(O)CC(=O)C(C)(C)O)[C@H]1CC[C@@]2(C)[C@@H]3CC[C@H]4C(C)(C)[C@@H](OC5OC(COC6OC(CO)C(O)C(O)C6O)C(O)C(O)C5O)CC[C@]4(C)C3=CC[C@]12C (some centres undefined) | > 100 µM | > 100 µM | > 100 µM | > 100 µM | > 100 µM | > 100 µM | > 100 µM | > 100 µM | > 100 µM | > 100 µM | – | – | – | – | – | – | – | – | – | – |
| O=C1CCC(N2C(=O)c3cccc(NCCOCCOCCNC(=O)c4cc5c(o4)C(=O)c4ccccc4C5=O)c3C2=O)C(=O)N1 (centres undefined) | 1.71 µM | 4.29 µM | 4.91 µM | 4.64 µM | 19.2 µM | 5.72 µM | 6.82 µM | 7.85 µM | 12.5 µM | 12.6 µM | 0.352 | 1.87 µM | 2.18 | 1.95 | 4.08 | 2.18 | 2.1 | 2.43 | 3.27 | 3.51 |
| N/C(=N\N=C\c1ccc(O)c(O)c1)NO | > 100 µM | > 100 µM | > 100 µM | > 100 µM | > 100 µM | > 100 µM | > 100 µM | > 100 µM | > 100 µM | > 100 µM | – | – | – | – | – | – | – | – | – | – |
| CN1CCN(c2ccc(-c3cccc(CN4CCOCC4)c3)cc2NC(=O)c2c[nH]c(=O)cc2C(F)(F)F)CC1 | > 100 µM | > 100 µM | > 100 µM | > 100 µM | > 100 µM | > 100 µM | > 100 µM | > 100 µM | > 100 µM | > 100 µM | > 100 | 60.7 µM | 53.5 | 33.6 | 50.3 | 62.5 | 36.4 | 38.2 | 10.7 | 49 |
| CCC(C)(C)NS(=O)(=O)c1ccccc1 | > 100 µM | > 100 µM | > 100 µM | > 100 µM | > 100 µM | – | > 100 µM | > 100 µM | – | > 100 µM | – | – | – | – | – | – | – | – | – | – |
| CCOC(=O)NC(=O)c1cn(C2OC(COC(=O)CCCCCCCCC(=O)OCC3OC(n4cc(C(=O)NC(=O)OCC)c(=O)[nH]c4=O)C4OC(C)(C)OC34)C3OC(C)(C)OC32)c(=O)[nH]c1=O (centres undefined) | > 100 µM | > 100 µM | > 100 µM | > 100 µM | > 100 µM | > 100 µM | > 100 µM | > 100 µM | > 100 µM | > 100 µM | – | – | – | – | – | – | – | – | – | – |
| N.N.NCCCCCN.O=C([O-])CC(=O)[O-].O=C([O-])CC(=O)[O-].[Pt+4].[Pt+4] | > 100 µM | > 100 µM | > 100 µM | > 100 µM | > 100 µM | > 100 µM | > 100 µM | > 100 µM | > 100 µM | > 100 µM | 98.3 | > 100 µM | > 100 | > 100 | > 100 | 71.4 | 39.6 | > 100 | > 100 | > 100 |
| CCCCCN(CCCCC)C(=O)[C@H](CCC(=O)OCc1ccccc1)NC(=O)c1cc2ccccc2[nH]1 | > 100 µM | > 100 µM | > 100 µM | > 100 µM | > 100 µM | > 100 µM | > 100 µM | 7.74 µM | > 100 µM | > 100 µM | – | – | – | – | – | – | – | – | – | – |
| COc1c(Cl)[c]([Hg][O]C(C)=O)c(NCC(C)=O)c(OC)[c]1[Hg][O]C(C)=O | 28.8 µM | 31.6 µM | > 100 µM | 62.4 µM | – | 30.8 µM | 50.1 µM | 38.8 µM | 6.8 µM | 40 µM | 11.2 | 15.6 µM | 81.6 | 19.6 | – | 11.4 | 19.9 | 15 | 2.28 | 22 |
| COc1ccc(C(=O)c2cc(C)c(OC)c(C)c2)c(OC)c1N(C(=O)CCl)C(=O)CCl | 14.2 µM | 3.83 µM | > 100 µM | 19.3 µM | 14.2 µM | 46 µM | 0.106 µM | 15.1 µM | 30.9 µM | 24.9 µM | 0.0696 | 0.0738 µM | 0.0834 | 0.0432 | 0.0537 | 0.548 | 0.0316 | 0.118 | 0.195 | 0.0829 |
| Clc1ccc(COC(Cn2ccnc2)c2ccc(Cl)cc2Cl)c(Cl)c1 (centres undefined) | 14.6 µM and 25.8 µM and 22.4 µM | 15 µM and 24.7 µM and 10.9 µM | 15.5 µM and 23.8 µM and 23.2 µM | 17.5 µM and 29.9 µM and 28.8 µM | 14.6 µM and 24.8 µM and 26.6 µM | 24.9 µM and 26.9 µM and 28.6 µM | 6.21 µM and 17 µM and 7.02 µM | 18.8 µM and 37.7 µM | 8.44 µM and 27.1 µM | 12.4 µM and 16.5 µM and 13.6 µM | 3.03 | 3.59 µM and 10.6 µM and 1.37 µM | 3.87 | 4.34 | 3.94 | 7.87 | 2.34 | 3.67 | 1.74 | 2.3 |
| COC(=O)[C@H](Cc1cn(C)cn1)NC(=O)[C@@H](NC(=O)Nc1cc(C(F)(F)F)cc(C(F)(F)F)c1)C(C)(C)C | > 10 µM | > 10 µM | > 10 µM | > 10 µM | > 10 µM | > 10 µM | > 10 µM | > 10 µM | – | > 10 µM | > 10 | > 10 µM | > 10 | > 10 | > 10 | > 10 | > 10 | > 10 | – | > 10 |
